Active and inactive are the calls of the source. No cut-off for these calls is given here.
Tests used:
[1] = Inhibition of Staphylococcus aureus sortase A using Abz-LPATG-Dap(DNP)-NH2 as substrate preincubated for 1 hr followed by substrate addition by FRET assay
Staphylococcus aureus [2] = experiment: Inhibition of Staphylococcus aureus sortase A assessed as reduction in SpA expression at 100 uM measured after overnight incubation by flow cytometry relative to control
Staphylococcus aureus [3] = experiment: Antibacterial activity against Staphylococcus aureus assessed as inhibition of bacterial invasion in HEK293T cells at 25 uM measured after 2 hrs by flow cytometry relative to control; type: functional, HEK-293T; parameters: scale not given: the % may be the effect or the level left
Staphylococcus aureus [4] = experiment: Antibiofilm activity against Staphylococcus aureus assessed as inhibition of biofilm formation measured after 15 to 18 hrs in the presence of quercetin by crystal violet staining assay; type: functional, organism-based
Staphylococcus aureus [5] = experiment: Antibacterial activity against Staphylococcus aureus assessed as inhibition of bacterial invasion in HEK293T cells at 6.25 uM measured after 2 hrs by flow cytometry relative to control; type: functional, HEK-293T; parameters: scale not given: the % may be the effect or the level left
Staphylococcus aureus [6] = experiment: Antibacterial activity against Staphylococcus aureus assessed as inhibition of bacterial invasion in HEK293T cells at 50 uM measured after 2 hrs by flow cytometry relative to control; type: functional, HEK-293T; parameters: scale not given: the % may be the effect or the level left
Staphylococcus aureus [7] = experiment: Antibiofilm activity against Staphylococcus aureus assessed as inhibition of biofilm formation measured after 15 to 18 hrs by crystal violet staining assay; type: functional, organism-based
Staphylococcus aureus [8] = experiment: Antibacterial activity against Staphylococcus aureus assessed as inhibition of bacterial invasion in HEK293T cells at 100 uM measured after 2 hrs by flow cytometry relative to control; type: functional, HEK-293T; parameters: scale not given: the % may be the effect or the level left
Staphylococcus aureus [9] = experiment: Antibacterial activity against Staphylococcus aureus assessed as inhibition of bacterial invasion in HEK293T cells at 12.5 uM measured after 2 hrs by flow cytometry relative to control; type: functional, HEK-293T; parameters: scale not given: the % may be the effect or the level left
Staphylococcus aureus [10] = experiment: Binding affinity to staphylococcus aureus sortase A assessed as covalent adduct formation at Cys184 by LC-MS/MS analysis
Staphylococcus aureus [11] = experiment: Binding affinity to staphylococcus aureus sortase A assessed as increase in molecular mass by LC-MS/MS analysis
Staphylococcus aureus [12] = experiment: Binding affinity to staphylococcus aureus sortase A assessed as covalent adduct formation by UPLC-TOF-MS analysis

Row | SMILES | IC50 [1] [µM] | further results
1 | Cc1ccc(/C=C(\C#N)c2ccc(-c3oc4ccccc4c3C(=O)NCC(C)C)cc2)cc1C | 17.5 | –
2 | COc1cccc2c(C(=O)NCC(C)C)c(-c3ccc(/C(C#N)=C/c4ccc(Cl)cc4)cc3)oc12 | 5.9 | –
3 | CC(C)CNC(=O)c1c(-c2ccc(/C(C#N)=C/c3ccc(Cl)cc3)cc2)oc2ccc(Cl)cc12 | 6.8 | IC50 (Staphylococcus aureus [7]): 54.2 µM; Activity (Staphylococcus aureus [8]): 4%
4 | COc1cccc2c(C(=O)NCC(C)C)c(-c3ccc(/C(C#N)=C/c4ccc(Br)cc4)cc3)oc12 | 15.5 | –
5 | CC(C)CNC(=O)c1c(-c2ccc(/C(C#N)=C/c3ccccc3)cc2)oc2ccccc12 | 8.8 | IC50 (Staphylococcus aureus [7]): 19.7 µM; Activity (Staphylococcus aureus [8]): 17.9%
6 | COc1ccc(OC)c(/C=C(\C#N)c2ccc(-c3oc4c(OC)cccc4c3C(=O)NCC(C)C)cc2)c1 | 52.8 | –
7 | CC(C)CNC(=O)c1c(-c2ccc(C(C#N)Cc3ccc(OCc4ccccc4)cc3)cc2)oc2ccccc12 (stereo unspecified) | 15 | –
8 | C=C(C#N)c1ccc(-c2oc3ccccc3c2C(=O)NCC(C)C)cc1 | 15.2 | Activity (Staphylococcus aureus [10]): Active; Activity (Staphylococcus aureus [11]): 344 Da; Activity (Staphylococcus aureus [12]): Active
9 | CC(C)CNC(=O)c1c(-c2ccc(C(C#N)Cc3ccc(O)cc3)cc2)oc2ccccc12 (stereo unspecified) | 7.9 | IC50 (Staphylococcus aureus [7]): 14.3 µM; Activity (Staphylococcus aureus [8]): 2.8%
10 | Cc1ccc(/C=C(\C#N)c2ccc(-c3oc4ccc(Cl)cc4c3C(=O)NCC(C)C)cc2)cc1C | > 100 | –
11 | COc1ccc(/C=C(\C#N)c2ccc(-c3oc4ccc(Cl)cc4c3C(=O)NCC(C)C)cc2)cc1 | 64.1 | –
12 | COc1ccc(/C=C(\C#N)c2ccc(-c3oc4ccc(Cl)cc4c3C(=O)NCC(C)C)cc2)cc1OC | 49.1 | –
13 | COc1cccc2c(C(=O)NCC(C)C)c(-c3ccc(/C(C#N)=C/c4ccccc4)cc3)oc12 | 11.9 | –
14 | CC(C)CNC(=O)c1c(-c2ccc(/C(C#N)=C/c3ccc(C(F)(F)F)cc3)cc2)oc2ccccc12 | 12.2 | –
15 | COc1ccc(/C=C(\C#N)c2ccc(-c3oc4c(OC)cccc4c3C(=O)NCC(C)C)cc2)cc1 | 12.1 | –
16 | Cc1cc(C)c(/C=C(\C#N)c2ccc(-c3oc4ccccc4c3C(=O)NCC(C)C)cc2)c(C)c1 | 32.2 | –

More lines, main results first:

Row | IC50 [1] [µM] | SMILES | further results
17 | 19.7 | CC(C)CNC(=O)c1c(-c2ccc(/C(C#N)=C/c3ccc(F)cc3)cc2)oc2ccccc12 | –
18 | 6 | CC(C)CNC(=O)c1c(-c2ccc(/C(C#N)=C/c3ccc(OCc4ccccc4)cc3)cc2)oc2ccccc12 | –
19 | 28.4 | COc1cccc2c(C(=O)NCC(C)C)c(-c3ccc(/C(C#N)=C/c4ccccc4C(=O)O)cc3)oc12 | –
20 | > 100 | COc1cccc2c(C(=O)NCC(C)C)c(-c3ccc(/C(C#N)=C/c4ccc(C)c(C)c4)cc3)oc12 | –
21 | 10.1 | COc1cccc2c(C(=O)NCC(C)C)c(-c3ccc(/C(C#N)=C/c4ccc(C)cc4)cc3)oc12 | –
22 | 11.9 | COc1ccc(/C=C(\C#N)c2ccc(-c3oc4ccccc4c3C(=O)NCC(C)C)cc2)cc1 | –
23 | 13.7 | CC(C)CNC(=O)c1c(-c2ccc(C(C#N)Cc3ccc(O)c(O)c3)cc2)oc2ccccc12 (stereo unspecified) | –
24 | 37.9 | Cc1cc(C)c(/C=C(\C#N)c2ccc(-c3oc4ccc(Cl)cc4c3C(=O)NCC(C)C)cc2)c(C)c1 | –
25 | 15.5 | COc1ccc(OC)c(/C=C(\C#N)c2ccc(-c3oc4ccc(Cl)cc4c3C(=O)NCC(C)C)cc2)c1 | –
26 | 3.3 | CC(C)CNC(=O)c1c(-c2ccc(/C(C#N)=C/c3ccc(OCc4ccccc4)c(OCc4ccccc4)c3)cc2)oc2ccccc12 | inhibition (Staphylococcus aureus [2]): 26.5%; Activity (Staphylococcus aureus [3]): 16%; IC50 (Staphylococcus aureus [4]): 2.08 µM; Activity (Staphylococcus aureus [5]): 2.9%; Activity (Staphylococcus aureus [6]): 19.1%; IC50 (Staphylococcus aureus [7]): 2.1 µM; Activity (Staphylococcus aureus [8]): 24%; Activity (Staphylococcus aureus [9]): 7.4%
27 | 9.7 | CC(C)CNC(=O)c1c(-c2ccc(/C(C#N)=C/c3ccccc3C(=O)O)cc2)oc2ccccc12 | –
28 | 13.8 | CCc1ccc(/C=C(\C#N)c2ccc(-c3oc4ccc(Cl)cc4c3C(=O)NCC(C)C)cc2)cc1 | –
29 | 9.8 | CC(C)CNC(=O)c1c(-c2ccc(/C(C#N)=C/c3ccc(Cl)cc3)cc2)oc2ccccc12 | –
30 | 48.6 | CCc1ccc(/C=C(\C#N)c2ccc(-c3oc4c(OC)cccc4c3C(=O)NCC(C)C)cc2)cc1 | –
31 | 14.1 | Cc1ccc(/C=C(\C#N)c2ccc(-c3oc4ccccc4c3C(=O)NCC(C)C)cc2)cc1 | –
32 | 9.6 | COc1ccc(/C=C(\C#N)c2ccc(-c3oc4ccccc4c3C(=O)NCC(C)C)cc2)cc1OC | –
33 | 9.4 | CCc1ccc(/C=C(\C#N)c2ccc(-c3oc4ccccc4c3C(=O)NCC(C)C)cc2)cc1 | –
34 | 29.9 | CC(C)CNC(=O)c1c(-c2ccc(/C(C#N)=C/c3ccccc3)cc2)oc2ccc(Cl)cc12 | –
35 | 47.1 | Cc1ccc(/C=C(\C#N)c2ccc(-c3oc4ccc(Cl)cc4c3C(=O)NCC(C)C)cc2)cc1 | –
36 | 14.5 | COc1ccc(/C=C(\C#N)c2ccc(-c3oc4c(OC)cccc4c3C(=O)NCC(C)C)cc2)cc1OC | –
37 | 19.1 | CC(C)CNC(=O)c1c(-c2ccc(/C(C#N)=C/c3ccc(Br)cc3)cc2)oc2ccccc12 | –
38 | 21.8 | COc1ccc(OC)c(/C=C(\C#N)c2ccc(-c3oc4ccccc4c3C(=O)NCC(C)C)cc2)c1 | –
39 | 16.4 | CC(C)CNC(=O)c1c(-c2ccc(/C(C#N)=C/c3ccc(Br)cc3)cc2)oc2ccc(Cl)cc12 | –
